Assay results taken from patent publication US11207299B2, “Biphenyl sulfonamide compounds for the treatment of type IV collagen diseases” (Travere Therapeutics, Inc., priority 2018, dated 2021).
Entries after “also recorded” stand apart in the source; their conditions may differ.

Key:
Format in all cases: in vivo, mouse
[1] = system: autosomal Alport mice (COL4A3^−/−); assay: Pilot study: dose-dependent effects of sparsentan in Alport mice treated from 3-7 weeks of age; conditions: for SBP / UP/C / DBP / Sclerotic Glomeruli (%) / BUN / Fibrosis Score: mean ± SD; for Sclerotic Glomeruli (%): fibronectin staining; for Fibrosis Score: at 7 wk, COL1-positive cortical area scored 0=<5% to 5=75-100%
From the text: (§1) Vehicle or sparsentan was given daily by oral gavage to autosomal Alport mice (COL4A3^−/−) on the 129/Sv background (male and female) in five separate studies: a pilot study, an early intervention study (treated from 3-7 weeks of age), a late intervention study (treated from 5-7 weeks of age after the onset of glomerular (GM) changes), a lifespan study, and a hearing study (FIG. 1). The early intervention, late intervention, lifespan, and hearing studies also included mice treated with a comparator, losartan, which was given orally at 3-4 weeks of age in the early intervention study, in drinking water at 4-7 weeks of age in the early intervention study, and in drinking water at 5-7 weeks in the late intervention study.
(§2) Efficacy renal endpoints included blood urea nitrogen (BUN), proteinuria (urine protein to creatinine ratio, or UP/C), glomerulosclerosis, tubulointerstitial fibrosis, leucocyte infiltration, and glomerular basement morphology (GBM) using transmission electron microscopy (TEM). Endpoints in the inner ear included auditory brain stem response (ABR) threshold as a measure of noise-induced hearing loss, strial capillary basement membrane thickness, and inner ear pathology by TEM.
(§3) In the pilot study, designed to determine an optimal efficacious dose of sparsentan, Alport mice (3-4 per group) were dosed with vehicle (0.5% methylcellulose 4000 cps/0.25% Tween® 80 in distilled water) or sparsentan at 60 mg/kg or 200 mg/kg from 3 to 7 weeks of age for 28 days. Although 200 mg/kg sparsentan was efficacious in the pilot study, BUN levels were higher than those of Alport mice dosed with 60 mg/kg sparsentan (Table 1; FIG. 2A; FIG. 2B). This observation led to the selection of a 120 mg/kg dose of sparsentan to take forward into the early intervention study. During the pilot study, blood pressure (BP) was measured weekly using the CODA2 tail cuff system. Stria from this pilot study were also examined by immunofluorescence using antibodies to laminin α2
(§4) For the pilot, early intervention, late intervention, and lifespan studies, spot urine was sampled pre-study and weekly during treatment and analyzed for protein (UP) and creatinine (C) to determine proteinuria (UP/C). At the end of each study the animals were euthanized, blood samples were taken, BUN was measured from serum, and kidneys were harvested for structural and immuno-fluorescent measurements. Glomerulosclerosis was assessed by immunofluorescence (IF) using an antibody to fibronectin (FN). Visual counting of the number of sclerotic glomeruli as a proportion of the total number of glomeruli per slide was used to calculate the percentage of sclerotic glomeruli. Sections were co-stained with an anti-CD45 antibody to indicate leucocyte infiltration. Tubulointerstitial fibrosis was determined by IF of kidney sections using an antibody to collagen 1 (COL1). Tubulointerstitial fibrosis (TIF) scoring was conducted by visual assessment of the COL1 positive area as a percentage of the total cortical area and was performed blinded. The fibrosis scoring (“Fibrosis Score”) was categorized according to visual judgment of percentage of total cortical area, as: 0=<5%, 1=5-10%, 2=10-25%, 3=25-50%, 4=50-75%, or 5=75-100%. Ultrastructural changes in GBM and podocyte morphology were observed using transmission electron microscopy (TEM).

[2] = system: autosomal Alport mice (COL4A3^−/−); assay: Late intervention study in Alport mice (treated from 5-7 weeks of age)
From the text: as §1, §2
In the late intervention study, wild-type or Alport mice (8 mice per group) were dosed for 14 days according to the same methods used in the early intervention study but beginning at 5 weeks of age, i.e., dosed with vehicle, 120 mg/kg of sparsentan, or 10 mg/kg losartan starting at 5 weeks of age for 14 days. In this study, untreated Alport mice at 5 weeks of age were also used as baseline controls.
as §4
For a baseline comparison for late intervention, glomerulosclerosis and fibrosis were determined in kidney samples taken from 5-week-old untreated Alport mice.

[3] = system: autosomal Alport mice (COL4A3^−/−); assay: Lifespan study in Alport mice
From the text: as §1
In the lifespan study, Alport mice (n=10) were dosed using the same methodology as in the early intervention study, except that dosing was continued until mice had lost 10% of their peak body weight, after which they were euthanized.
For the pilot, early intervention, late intervention, and lifespan studies, spot urine was sampled pre-study and weekly during treatment and analyzed for protein (UP) and creatinine (C) to determine proteinuria (UP/C). At the end of each study the animals were euthanized, blood samples were taken, BUN was measured from serum, and kidneys were harvested for structural and immuno-fluorescent measurements. Glomerulosclerosis was assessed by immunofluorescence (IF) using an antibody to fibronectin (FN). Visual counting of the number of sclerotic glomeruli as a proportion of the total number of glomeruli per slide was used to calculate the percentage of sclerotic glomeruli. Sections were co-stained with an anti-CD45 antibody to indicate leucocyte infiltration. Tubulointerstitial fibrosis was determined by IF of kidney sections using an antibody to collagen 1 (COL1). Tubulointerstitial fibrosis (TIF) scoring was conducted by visual assessment of the COL1 positive area as a percentage of the total cortical area and was performed blinded. […]

[4] = system: laminin α2 in stria of Alport mice; assay: Immunofluorescence of laminin α2 in stria of Alport mice; conditions: Alport mice, sparsentan 200 mg/kg from 3-7 weeks of age (pilot study)
Description: as §3, with “Stria from this pilot study were also examined by immunofluorescence using antibodies to laminin α2” left out
For the hearing study, wild-type or Alport mice were treated according to daily from 3-8.5 weeks of age by oral gavage with vehicle (0.5% methylcellulose 4000 cps/0.25% Tween® 80 in distilled water) or 120 mg/kg sparsentan or losartan at 20 mg/kg by oral gavage from 3-4 weeks of age (during weaning) and 10 mg/kg in drinking water from 4-7 weeks of age (n=5). The progression of Alport disease was assessed at 7 weeks of age by the amount of proteinuria (via urinalysis reagent strips—data not shown). […] Hearing ability and sensitivity to noise were assessed between 7 and 8 weeks of age by Auditory Brainstem Response (ABR), pre-noise exposure. […]

[5] = Alport mice, sparsentan 60 mg/kg, at 5 wk of age
[6] = Alport mice, sparsentan 60 mg/kg, at 6 wk of age
[7] = Alport mice, sparsentan 60 mg/kg, at 7 wk of age
[8] = Alport mice, sparsentan 200 mg/kg, at 5 wk of age
[9] = Alport mice, sparsentan 200 mg/kg, at 6 wk of age
[10] = Alport mice, sparsentan 200 mg/kg, at 7 wk of age
[11] = Alport mice late intervention, sparsentan 120 mg/kg, mean ± SD

CCCCC1=NC2(CCCC2)C(=O)N1Cc1ccc(-c2ccccc2S(=O)(=O)Nc2noc(C)c2C)c(COCC)c1 [sparsentan]
BUN levels after 200 mg/kg compared to 60 mg/kg sparsentan ([1]; Alport mice, 7 weeks of age, 4 weeks of dosing): elevated | SBP ([1]; Alport mice, sparsentan 60 mg/kg oral daily from 3 wk, at 5 wk of age, n = 4): 114.0 ± 13.0 mmHg | UP/C ([1]; Alport mice, sparsentan 60 mg/kg, at 4 wk of age): 3.4 ± 2.6 mg/mg | DBP [1, 5]: 71.1 ± 10.7 mm/Hg | UP/C [1, 5]: 8.6 ± 2.4 mg/mg | DBP [1, 6]: 72.9 ± 9.6 mm/Hg | SBP [1, 6]: 106.2 ± 6.9 mmHg | UP/C [1, 6]: 1.5 ± 1.5 mg/mg | Sclerotic Glomeruli (%) [1, 7]: 3.5±1.6% | BUN [1, 7]: 17.1 ± 1.5 mg/dL | DBP [1, 7]: 78.1 ± 14.7 mm/Hg | SBP [1, 7]: 117.6 ± 4.6 mmHg | UP/C [1, 7]: 5.6 ± 3.0 mg/mg | Fibrosis Score ([1]; Alport mice, sparsentan 60 mg/kg): 0.0 ± 0.0 | SBP ([1]; Alport mice, sparsentan 200 mg/kg oral daily from 3 wk, at 5 wk of age, n = 3): 110.6 ± 21.8 mmHg | UP/C ([1]; Alport mice, sparsentan 200 mg/kg, at 4 wk of age): 2.1 ± 3.7 mg/mg | DBP [1, 8]: 99.7 ± 7.7 mm/Hg | UP/C [1, 8]: 3.9 ± 3.5 mg/mg | DBP [1, 9]: 74.6 ± 21.4 mm/Hg | SBP [1, 9]: 108.7 ± 26.4 mmHg | UP/C [1, 9]: 1.5 ± 2.7 mg/mg | Sclerotic Glomeruli (%) [1, 10]: 1.4±1.3% | BUN [1, 10]: 25.9 ± 7.7 mg/dL | DBP [1, 10]: 91.7 ± 20.0 mm/Hg | SBP [1, 10]: 122 ± 20.9 mmHg | UP/C [1, 10]: 0.8 ± 1.4 mg/mg | Fibrosis Score ([1]; Alport mice, sparsentan 200 mg/kg): 0.0 ± 0.0 | Prevention of UP/C, glomerulosclerosis, and fibrosis compared to vehicle-treated mice ([1]; sparsentan 60 and 200 mg/kg, 3-7 weeks of age): prevented an increase in glomerulosclerosis in a dose-dependent manner; also recorded: dose-dependent prevention | Systolic and diastolic blood pressure compared to vehicle-treated Alport mice ([1]; sparsentan 60 or 200 mg/kg, 6 weeks of age (3 weeks of dosing)): significantly lower | COL1 immunoreactivity ([1]; sparsentan-treated Alport mice, pilot study, kidney sections): absent | BP compared to vehicle-treated Alport mice ([1]; sparsentan, end of pilot study (7 weeks of age; 4 weeks of dosing)): no difference | UP/C ([2]; Alport mice late intervention, sparsentan 120 mg/kg for 14 days from 5 wk of age, mean ± SD, n = 8): 16.8 ± 2.8 mg/mg | BUN [2, 11]: 16.2 ± 2.4 mg/dL | GS (% Sclerotic glomeruli) [2, 11]: 8.3 ± 9.2 % | TIF ([2]; Alport mice late intervention, sparsentan 120 mg/kg, tubulointerstitial fibrosis score, mean ± SD): 0.8 ± 0.7 | Nephroprotection in AP mice ([2]; late intervention, to a greater extent than in the losartan-treated group): significant nephroprotection | Development of fibrosis, CD45^+ leucocyte infiltration, and glomerulosclerosis ([2]; sparsentan 120 mg/kg or losartan 10 mg/kg, 5-7 weeks of age): prevented; also recorded: attenuated | UP/C, BUN, glomerulosclerosis, and fibrosis vs. vehicle-treated Alport mice ([2]; sparsentan 120 mg/kg, late intervention, P<0.05): significantly lower | Lifespan compared to vehicle-treated Alport mice ([3]; dosing as in early intervention study, continued until 10% loss of peak body weight, P<0.05): significantly longer; also recorded: significantly greater | Median lifespan ([3]; sparsentan compared with losartan): the same as losartan | Accumulation of laminin α2 in stria [4]: prevented
